Experimental data reported in ChEMBL document CHEMBL1124715 (J Med Chem, 1990).

Target: Serotonin 2 (5-HT2) receptor (Rattus norvegicus, UniProt P30994+P08909+P14842)
Assay: Binding affinity against 5-hydroxytryptamine 2 receptor of rat frontal cortex using [3H]ketanserin radioligand
Format: tissue-based

Row | SMILES | Ki
1 | CCCCc1cc(OC)c(CC(C)N)cc1OC (centres undefined) | 0.058 µM
2 | COc1cc(CC(C)N)c(OC)cc1O (centres undefined) | > 50 µM
3 | COc1cc(CC(C)N)c(OC)cc1Cl (centres undefined) | 0.218 µM
4 | COc1cc(CC(C)N)c(OC)cc1N (centres undefined) | 26 µM
5 | CCCCCCc1cc(OC)c(CC(C)N)cc1OC.Cl (centres undefined) | 0.0025 µM
6 | COc1cc(C(C)C)c(OC)cc1CC(C)N (centres undefined) | 0.076 µM
7 | CCC(=O)c1cc(OC)c(CC(C)N)cc1OC.Cl (centres undefined) | 0.735 µM
8 | CCCCCCCCc1cc(OC)c(CC(C)N)cc1OC.Cl (centres undefined) | 0.003 µM
9 | CCCNC(=O)c1cc(OC)c(CC(C)N)cc1OC (centres undefined) | 7.55 µM
10 | COc1cc(CC(C)N)c(OC)cc1CCCc1ccccc1.Cl (centres undefined) | 0.01 µM
11 | COc1cc(C(=N)N)c(OC)cc1CC(C)N (centres undefined) | 0.007 µM
12 | COc1cc(CC(C)N)c(OC)cc1I (centres undefined) | 0.019 µM
13 | COc1cc(CC(C)N)c(OC)cc1C#N.Cl (centres undefined) | 2.4 µM
14 | COc1cc(C(=O)O)c(OC)cc1CC(C)N.Cl (centres undefined) | > 50 µM
15 | COc1cc(CC(C)N)c(OC)cc1Cc1ccccc1.Cl (centres undefined) | 0.007 µM
16 | CCCCOC(=O)c1cc(OC)c(CC(C)N)cc1OC (centres undefined) | 1.53 µM
17 | CCOc1cc(OC)c(CC(C)N)cc1OC (centres undefined) | 2.2 µM
18 | CCCOC(=O)c1cc(OC)c(CC(C)N)cc1OC (centres undefined) | 2.46 µM
19 | COc1cc(C(C)(C)C)c(OC)cc1CC(C)N (centres undefined) | 0.019 µM
